# From patent US20240279687A1, “PEPTIDE NUCLEIC ACIDS FOR SPATIOTEMPORAL CONTROL OF CRISPR-CAS BINDING” (Yale University, priority 2021, published 2024)
# How the values were obtained:
# dCas9-p300 / MYOD1 sgRNA [1] = molecular target: T1, dCas9-p300 / MYOD1 sgRNA (UniProt Q09472+Q99ZW2, D10A/H840A); test: dCas9-p300 MYOD1 expression in stable K562 cells, RT-qPCR; type: cell-based, human; conditions: 250 pmol PNA
# T1 construct: P2A-PuroR (C)
# Method: Stable K562-pLV-dCas9-p300 line was established from lentivirus generated from pLV-dCas9-p300-P2A-PuroR plasmid (Addgene: #83889) and Invitrogen Virapower packaging plasmids in 293FT cells (Invitrogen, R70007) and puromycin selection (2 μg/mL, Gibco). Lines were further transduced with lentivirus similarly generated with pLV-U6-UbC-eGFP-P2A-Bsr plasmids (Addgene: #83925) containing MYOD promoter targeted sgRNA sequences with blasticidin selection (5 μg/mL, Gibco, A1113903, Table 4).
# 6×10^6 stable dCas9-p300/MYOD1 sgRNA expressing K562 cells (Addgene #83889, Addgene #83925), were nucleofected with 250 pmol of specified PNA (non-targeting BFP or POU5F1) using a Lonza 4D nucleofector. At each specified time point 500 μL of cells were removed from each condition flask, spun down, and frozen. […] Expression relative to the untreated parent K562 line was recorded as fold-change and calculated using the ΔΔCT method. […]
# For RNA extractions 0.5×10^6 K562 cells were spun down, washed once with PBS, homogenized using QIAshredder columns (QIAGEN 79656) and processed using QIAGEN RNeasy mini kits (74106) before eluting in 50 μL of water. […] Expression relative to the untreated K562 parent line was recorded as fold-change and calculated from averaged CT values using the ΔΔCT method.
# dCas9-p300 / MYOD1 sgRNA [2] = molecular target: T1, dCas9-p300 / MYOD1 sgRNA; test: ChIP-qPCR of H3K27ac occupancy at the MYOD1 promoter region; type: cell-based, human; conditions: 24 and 48 hours after PNA treatment (250 pmol), subsequent increase at 240 hours
# Method: K562 cells (6×10^6 cells) were diluted to 0.4×10^6 cells/mL and cross-linked with a final concentration of 1% formaldehyde (Sigma-Aldrich, 252549) for each IP. Chromatin was prepared and sheared according to manufacturer protocol using SimpleChIP Enzymatic Chromatin IP Kit (Cell Signaling, #9003) and QSONICA Q800R3 sonicator for nuclear lysis. For each condition, 10 μg of chromatin was incubated with 3 μg of H3K27ac antibody (abcam ab4729) rotating overnight at 4° C. Chromatin was incubated with 30 μL of protein G magnetic beads (Cell Signaling, #70024) and washed, eluted, reverse cross-linked, and purified according to manufacturer protocol. ChIP-qPCR reactions were conducted in technical triplicate for 2% input and IP samples using a StepOnePLUS Real-Time PCR System (Applied Biosystems), SimpleChIP Universal qPCR Mastermix (Cell Signaling, #88989), and MYOD1 target specific primers (Table 8). Percent occupancy values were calculated by percent input method from 2% input samples for each replicate.
substance,measurement,setting,value
"KKK-GCACGCCCTTTCCAAACCT-KKK (Three lysine residues flank each end, further chemistry not given here) [MYOD1 p300 PNA]",time by which epigenetic-mediated MYOD1 gene upregulation was driven down,dCas9-p300 / MYOD1 sgRNA [1],≤ 24 h
same,time by which expression returned to the fully upregulated state,dCas9-p300 / MYOD1 sgRNA [1],≤ 168 h
same,H3K27ac occupancy at the MYOD1 promoter region,dCas9-p300 / MYOD1 sgRNA [2],significant decrease
